# Data as given in paper PMC11581978, “Paenilamicins are context-specific translocation inhibitors of protein synthesis” (Nature Chemical Biology, 2024).
# What was measured:
# [1] = test system: ribosomes translating ErmBL mRNA; experiment: Toeprinting on ErmBL mRNA templates (Figs. 4a and 5c); type: biochemical, E. coli; conditions: for ribosome stalling on wildtype ErmBL mRNA: mupirocin present, in duplicate
# Experimental: Toeprinting reactions for Figs. 4a and 5c were performed as described previously. Briefly, reactions were performed with 5 μl of PURExpress in vitro protein synthesis system. The reactions contained 0.1 pmol of the respective DNA template (Supplementary Table 2) and were supplemented with retapamulin, erythromycin, mupirocin or PamB2 as specified. The transcription–translation reactions were incubated 20 min at 37 °C. Subsequently, reverse transcription was performed for 10 min at 37 °C using AMV RT and the radiolabeled NV*1-primer. Reactions were stopped by the addition of 1 µl of 10 M NaOH and then neutralized with 0.8 µl of concentrated HCl. Subsequently, 200 µl of the stop buffer (0.3 M sodium acetate (pH 5.5), 5 mM EDTA and 0.5% SDS) was added and phenol extraction was performed. The obtained complementary DNA was precipitated in ethanol for subsequent gel electrophoresis.
# [2] = test system: E. coli ribosomes translating MLIFstop-mRNA; experiment: Toeprinting assay on MLIFstop-mRNA; type: biochemical; conditions: 100 µM, positive control, toeprinting in duplicate
# Description: To investigate how paenilamicins inhibit translation, we generated PamB2-stalled ribosome complexes (PamB2-SRC) for single-particle cryo-EM analysis. Rather than forming complexes on vacant ribosomes, or with predefined functional states, we instead aimed to use more physiological complexes where translating ribosomes become stalled by PamB2. To achieve this, we performed in vitro translation reactions with E. coli ribosomes using the Met-Leu-Ile-Phe-stop-mRNA (MLIFstop-mRNA), a model template that we had previously used to successfully determine structures of drosocin-stalled ribosomal complexes. Toeprinting was used to monitor the position of ribosomes on the MLIFstop-mRNA in the presence of increasing concentrations of synthetic PamB2 (Extended Data Fig. 2). […] (Extended Data Fig. 2). […] (Extended Data Fig. 2).
# Toeprinting reactions for Fig. 4b and Extended Data Fig. 2 were performed as described previously. Briefly, reactions were performed with 6 μl of PURExpress in vitro protein synthesis system (New England Biolabs). The reactions were carried out with different primers and templates (Supplementary Tables 2 and 3). The reactions contained 340 ng of the respective mRNA template and were supplemented with the different compounds as specified. The translation reactions were incubated for 30 min at 37 °C. […]
# [3] = test system: EF-G-dependent translocation on the ribosome; experiment: Translocation assay (toeprinting, MFKAFK template); type: biochemical; conditions: EF-G present; tRNAfMet in P-site, N-AcPhe-tRNAPhe in A-site; in duplicate
# Experimental: Translocation assays were performed as previously described[22] using the MFKAFK template[45] (Supplementary Table 2). Reactions were prepared by incubating tight-coupled ribosomes (0.7 µM) with mRNA (0.5 µM) and tRNAi^Met (1 µM) for 20 min at 37 °C in the Pure System Buffer (5 mM potassium phosphate (pH 7.3), 9 mM Mg(OAc)2, 95 mM potassium glutamate, 5 mM NH4Cl, 0.5 mM CaCl2, 1 mM spermidine, 8 mM putrescine and 1 mM dithiothreitol) and for additional 10 min at 37 °C with 2 μM of N-acetyl-Phe-tRNA^Phe. At the time of N-acetyl-Phe-tRNA^Phe addition, the reactions were supplemented with PamB2 or negamycin as specified. The translocation reaction was initiated by addition of 1 µl of EF-G–GTP mixture (1.2 µM and 3.2 mM). After 5 min of incubation at 30 °C, 2 µl of reverse transcriptase and/or dNTPs mixture was added. The reactions were stopped after another 5 min at 30 °C by addition of 200 µl of the stop buffer and subsequent phenol extraction. The obtained complementary DNA was precipitated in ethanol for subsequent gel electrophoresis.
# [4] = test system: EF-G-dependent translocation on the ribosome; parameters: method as in PMID 25306922; conditions: cited from earlier work
# [5] = test system: Escherichia coli in vitro translation; conditions: well-known translation inhibitors; read-out: IC50; cited from earlier work
# Description: The accordance of structural features of paenilamicins with the translation inhibitor edeine (Extended Data Fig. 1c) led to the hypothesis that paenilamicins may also exert their antimicrobial activity by binding to the ribosome and inhibiting protein synthesis. […] The best understood context-specific translation inhibitors are those that target the large subunit, where their inhibitory action is influenced by the sequence of the nascent polypeptide chain being synthesized, for example, macrolides and ketolides[30]–[32] ...
compound,measurement,setting,value
"C=C[C@]1(C)C[C@@H](OC(=O)CS[C@@H]2C[C@H]3CC[C@@H](C2)N3C)[C@]2(C)[C@H](C)CC[C@]3(CCC(=O)[C@H]32)[C@@H](C)[C@@H]1O [retapamulin, reference compound]",ribosome stalling on wildtype ErmBL mRNA,[1]; 50 or 100 µM,traps ribosomes on the AUG start codon
thiostrepton [reference compound],ribosome stalling on MLIFstop-mRNA,[2],a single strong band is observed that corresponds to ribosomes trapped on the AUG start codon
"CN(CC(=O)O)NC(=O)C[C@H](N)C[C@@H](O)CN [negamycin, reference compound]",EF-G dependent translocation (toeprint shift),[3],little to no shift in the toeprint band
same,interference with translocation,[4],interfere with translocation
"C/C(=C\C(=O)OCCCCCCCCC(=O)O)C[C@@H]1OC[C@H](C[C@@H]2O[C@H]2[C@@H](C)[C@H](C)O)[C@@H](O)[C@H]1O [mupirocin, reference compound]","ribosome trapping at twelfth codon (AUC, Ile) of ErmBL mRNA","[1]; Ile-tRNA synthetase inhibitor added to all reactions, concentration not given",become trapped
"O=C(N[C@H](CO)[C@H](O)c1ccc([N+](=O)[O-])cc1)C(Cl)Cl [chloramphenicol, reference compound]",IC50,[5],1000 nM
"CN(C)[C@@H]1C(O)=C(C(N)=O)C(=O)[C@@]2(O)C(O)=C3C(=O)c4c(O)cccc4[C@@](C)(O)[C@H]3C[C@@H]12 [tetracycline, reference compound]",IC50,[5],10000 nM
"CC[C@H]1OC(=O)[C@H](C)[C@@H](O[C@H]2C[C@@](C)(OC)[C@@H](O)[C@H](C)O2)[C@H](C)[C@@H](O[C@@H]2O[C@H](C)C[C@H](N(C)C)[C@H]2O)[C@](C)(O)C[C@@H](C)C(=O)[C@H](C)[C@@H](O)[C@]1(C)O [erythromycin, reference compound]",ribosome stalling on wildtype ErmBL mRNA,[1]; 50 µM,accumulation of ribosomes stalled with the tenth CAU codon (encoding Asp) in the P-site
same,IC50,[5],750 nM
